The values below come from article PMC11758220, “Identification of a Privileged Scaffold for Inhibition of Sterol Transport Proteins through the Synthesis and Ring Distortion of Diverse, Pseudo-Natural Products” (ACS Central Science, 2025).

Experiment [1] relates to panel of STPs. Kind of experiment: Screen against a broad panel of the STPs using FP and DSF assays. The format is binding, human. An excerpt: Protein expression constructs
Human ASTER domains of Aster-A(359-547), -B(364-552) and -C(318-504) were subcloned into a pGEX-6p-2rbs vector, thus introducing the cloning artifact ‘GPLGS’.3 The pGEX-6P-1-GST-OSBP(377- […]
a gift from James H. Hurley (University of California).4 The pHIS_2His6_Thrombin_STARD4(2-205;C75S) plasmid was a gift from Young Jun Im (Chonnam National University).5 STARD5A was a gift from Nicola Burgess-Brown (Addgene plasmid #42392; http://n2t.net/addgene:42392; […]
Protein expression and purification […]
vectors including an N-terminal PreScission-cleavable glutathione S-transferase (GST)-tag were expressed in Escherichia coli (E. coli) OverExpress C41 in Terrific Broth (TB) medium for 16 h at 18 °C after the induction with 0.1 mM isopropyl β-D-1-thiogalactopyranoside (IPTG). Cells were harvested at 3500 × g for 15 minutes and lysed by sonication in buffer containing 50 mM HEPES pH 7.5, 300 mM NaCl, 10 %v/v glycerol, 5 mM dithiothreitol (DTT), 0.1 %v/v Triton X-100 and protease inhibitor mix HP plus (Serva). The lysate was purified by affinity chromatography on a GSTrap FF column (Cytiva) using an ÄKTA Start (Cytiva) in buffer containing 50 mM HEPES pH 7.5, 300 mM NaCl, 10 %v/v glycerol, 5 mM DTT and 0.01 %v/v Triton X-100. The GST-tag was cleaved overnight on the column at 4 °C. […]

For experiment [2], the target named is T1, STARD5 (Homo sapiens, UniProt Q9NSY2).
T1 construct: STARD5(6-213); host or cells: E. coli BL21(DE3)
T1 sequence (Q9NSY2 6-213): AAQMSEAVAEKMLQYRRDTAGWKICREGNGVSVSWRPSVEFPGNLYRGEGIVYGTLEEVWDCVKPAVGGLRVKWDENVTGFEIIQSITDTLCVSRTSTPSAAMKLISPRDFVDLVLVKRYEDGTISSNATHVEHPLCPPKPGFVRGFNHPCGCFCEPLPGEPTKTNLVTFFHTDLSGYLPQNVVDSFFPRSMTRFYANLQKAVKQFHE
Details: method as in Depta et al.[43]. As to conditions: data reproduced; ref Depta et al.[43]; read-out: STARD5 Kd,app (DSF); cited from earlier work.

`CC12CCC3CC1CCC21C(=Nc2ccc(N4CCNCC4)cc21)O3` (centres unmarked) [Compound 22]: the “Activity against the panel of STPs (in words)” value in experiment [1] is “lost almost all activity”.
For the compound `CCN(CC)CCO[C@H]1CC[C@@]2(C)C(=CC[C@@H]3[C@@H]2CC[C@]2(C)C(=O)CC[C@@H]32)C1` [Compound U18666A, reference compound], the Kd in experiment [2] was more than 30 µM.
